Assay results reported in patent publication US20260344673A1, “A SOLID FORM FOR PREPARATION OF AN AQUEOUS DISPERSION, AQUEOUS DISPERSION, STABLE CONCENTRATE, COMBINED AQUEOUS DISPERSION, AND USES THEREOF” (priority 2022, published 2026).

Legend:
[1] = system: Colletotrichum gloeosporioides; assay: Kirby-Bauer disk diffusion test, Colletotrichum gloeosporioides; conditions: Colletotrichum gloeosporioides
Method: (§1) The microbiological tests were carried out by applying Kirby-Bauer Disk Diffusion Susceptibility Test Protocol for antimicrobial activity. It is based on the formation of a concentration gradient in the growth medium during the diffusion of the active substance from the antibiogram disc (Kirby-Bauer method).
(§2) The performance of the embodiments of the present inventions and their mixtures enriched with millbase (MFA) was analysed against the appropriate reference substance, i.e., a commercial product containing the analogue active substance with the same concentration. The prepared solutions were applied on the paper antibiograms. Then the soaked antibiograms were placed on the Petri Dishes (dish diameter 90 mm) with the growth medium for fungal pathogens V8. Composition of V8: agar, calcium carbonate and multi-vegetable juice. 3 fragments of mycelium of the tested pathogen (5×5 mm) were transplanted onto the prepared medium. As a result, the zones where the fungal growth was inhibited have been measured and compared respectively with the control sample and the analogue active substance sample.
(§3) Assessment was carried out by determining the infested area of the Petri dish in %. These percentages have been converted into efficacy (W) according to Abbot's formula as follows: W=(1−α/β)×100 • where: • α—corresponds to the mycelium/bacterial growth of each tested sample [%], • β—corresponds to the mycelium/bacterial growth in control sample [%].
(§4) In order to estimate if the combined action effect with the commercial fungicide, the W parameter of the mixture was compared with W parameter for particular commercial fungicide solo. Where W=0 the efficacy of the control sample (whole Petri dish covered with mycelium), and W=100 is when no mycelium growth observed.

[2] = system: Fusarium oxysporum; assay: Kirby-Bauer disk diffusion test, Fusarium oxysporum; conditions: Fusarium oxysporum
Method: as §1, §2, §3, §4

[3] = system: Phytophthora megasperma; assay: Kirby-Bauer disk diffusion test, Phytophthora megasperma; conditions: Phytophthora megasperma
Method: as §1, §2, §3, §4

[4] = system: Venturia inaegualis; assay: Kirby-Bauer disk diffusion test, Venturia inaequalis; conditions: Venturia inaegualis
Method: as §1, §2, §3, §4

[5] = system: Erwinia sp.; assay: Kirby-Bauer disk diffusion test, bacterial pathogens (inhibition zones, halo effect); conditions: Nutrient Agar, tank-mixes; for Efficacy %: control 0.00; for Erwinia sp. bacterial growth: control 3.5 mm
[6] = system: Sclerotinia sclerotiorum; assay: Field trial oilseed rape, efficacy against Sclerotinia sclerotiorum; type: in vivo; conditions: field conditions, tank-mix, control (no treatment) 6.28
Method: (§5) The rates of application (use) of the composition of the present invention (MFA) vary according to type of use, type of crop, the specific active ingredient in the combination, but is such that the active ingredient in the combination is an effective amount to provide the desired action (such as disease control). The application rate of the composition for a given set of conditions can readily be determined by trials.
(§6) Field trials were conducted in Poland according to approved EPPO guidelines: PP 1/135(4), PP 1/152(4), PP 1/181(4) (general), PP 1/1(4) (sugar beet), PP 1/28 (3), PP 1/26(4) (winter wheat), PP 1/78(4) (oilseed), PP1/263 (1), PP1/16 (3) (strawberry), PP 1/2 (5), PP 1/263 (1) (potato). The spray volumes were in line with farmers' practice, varying between 200-300 l/ha. The applications were processed as per the EPPO guideline specific for each crop.

[7] = system: Phoma lingam; assay: Field trial oilseed rape, efficacy against Phoma lingam; type: in vivo; conditions: field conditions, tank-mix, control (no treatment) 4.18
Method: as §5, §6

[8] = system: oilseed rape; assay: Field trial oilseed rape, plant biomass and yield quality/quantity parameters; type: in vivo; conditions: field conditions; for The Thousand Grain Weight (TGW): Tables 31-33, control 5.64; for Bulk density: control 0.65; for Yield: control 25.49; for Biomass: control 90.00
Method: as §6

[9] = system: Zymoseptoria tritici; assay: Field trial winter wheat, efficacy against Zymoseptoria tritici; type: in vivo; conditions: field conditions, tank-mix, control (no treatment) 4.68
Method: as §5, §6

[10] = system: winter wheat; assay: Field trial winter wheat, plant biomass and yield parameters; type: in vivo; conditions: field conditions; for Bulk density: control 0.67; for The Thousand Grain Weight (TGW): control 41.90; for Yield: control 76.50; for Biomass: control 157.50
Method: as §6

[11] = system: Peronospora manshurica; assay: Field trial soya, efficacy against Peronospora manshurica; type: in vivo; conditions: field conditions, tank-mix, control (no treatment) 5.66
Method: as §5, §6

[12] = system: Colletotrichum spp.; assay: Field trial soya, efficacy against Colletotrichum spp.; type: in vivo; conditions: field conditions, tank-mix, control (no treatment) 4.21
[13] = system: soya; assay: Field trial soya, plant biomass and yield parameters; type: in vivo; conditions: field conditions; for Bulk density: control 0.728; for Yield: control 37.41; for Biomass: control 190.0; for The Thousand Grain Weight (TGW): control 205.3
Method: as §6

[14] = system: Alternaria infectoria/alternata; assay: Kirby-Bauer disk diffusion test, Alternaria infectoria/alternata
Method: as §2, §3, §4

[15] = system: Sclerotinia sclerotiorum; assay: Kirby-Bauer disk diffusion test, Sclerotinia sclerotiorum
Method: as §2, §3, §4

[16] = system: Septoria tritici; assay: Kirby-Bauer disk diffusion test, Septoria tritici
Method: as §2, §3, §4

[17] = system: Septoria nodorum (1291); assay: Kirby-Bauer disk diffusion test, Septoria nodorum (1291)
Method: as §2, §3, §4

[18] = system: Botrytis cinerea; assay: Kirby-Bauer disk diffusion test, Botrytis cinerea
Method: as §2, §3, §4

[19] = system: Fusarium equiseti; assay: Kirby-Bauer disk diffusion test, Fusarium equiseti
Method: as §2, §3, §4

[20] = system: Phytophthora cactorum; assay: Kirby-Bauer disk diffusion test, Phytophthora cactorum; set-up: % mycelium growth relative to the control: concentration or dose not given beside the values
Method: as §2, §3, §4

[21] = system: Monilinia fructigena; assay: Kirby-Bauer disk diffusion test, Monilinia fructigena
Method: as §2, §3, §4

[22] = system: Phytium ultimum; assay: Kirby-Bauer disk diffusion test, Phytium ultimum
Method: as §2, §3, §4

[23] = system: Verticillium longisporum; assay: Kirby-Bauer disk diffusion test, Verticillium longisporum
Method: as §2, §3, §4

[24] = system: selected pathogens (fungi); conditions: vs commercial fungicide
[25] = system: spring barley; conditions: compared with uninoculated plots; Montana 1981 and 1982; cited from earlier work
[26] = system: Cochliobolus sativus; conditions: Montana 1981 and 1982; cited from earlier work
[27] = system: spring barley; conditions: Montana 1981 and 1982; cited from earlier work
[28] = system: seeds; assay: Seed treatment test: germination rate, infected seeds, shoot and root biomass (all seed species); type: in vivo; conditions: applied alone and in mixtures with seed treatment fungicides
Method: The method of treating seeds according to the embodiment of the present inventions can be characterised in that in the treatment seed with 30 g checked product with and without combination with fungicidal seed treatment products per 100 kg of seed are employed. The results were assessed due to EPPO: PP1/152(4), PP 1/19 (5), PP 1/135(4) and PP1/181(4) Standards.
Seed treatment test was conducted according to International Rules for Seed Testing 2018 (ISTA) under laboratory conditions using sterile paper as a growing media. The tests were continued for 14 days. As a result, the germination rate and the number of infected seeds were calculated. The biomass (shoots and roots) was collected and measured accordingly.

COC=C(C(=O)OC)c1ccccc1Oc1cc(Oc2ccccc2C#N)ncn1 [Azoxystrobin (250)]
% mycelium growth relative to the control ([1]; V8 medium): 50% | mycelium growth ([1]; V8 medium, control 5.4 cm): 2.7 cm | EFFICACY W (Abbot) ([1]; control W=0, no growth W=100): 50 | % mycelium growth relative to the control ([2]; V8 medium): 100% | mycelium growth ([2]; V8 medium, control 8.6 cm): 8.6 cm | EFFICACY W (Abbot) ([2]; control W=0, no growth W=100): 0 | % mycelium growth relative to the control ([3]; V8 medium): 70% | mycelium growth ([3]; V8 medium, control 5.4 cm (8.6 cm in Table 25)): 3.8 cm | EFFICACY W (Abbot) ([3]; control W=0, no growth W=100): 30 | % mycelium growth relative to the control ([4]; V8 medium): 0% | mycelium growth ([4]; V8 medium, control 2.9 cm): 0 cm | EFFICACY W (Abbot) ([4]; control W=0, no growth W=100): 100 | Efficacy % [5]: 22.86% | Erwinia sp. bacterial growth [5]: 2.7 mm | Efficacy Sclerotinia sclerotiorum [6]: 4.32 scale 0-10 | Efficacy Phoma lingam [7]: 3.42 scale 0-10 | The Thousand Grain Weight (TGW) [8]: 5.34 g | Bulk density [8]: 0.65 kg/L | Yield [8]: 25.54 dt/ha | Biomass [8]: 112.50 dt/ha | Efficacy Zymoseptoria tritici [9]: 4.32 scale 0-10 | Bulk density [10]: 0.63 kg/L | The Thousand Grain Weight (TGW) [10]: 43.60 g | Yield [10]: 66.33 dt/ha | Biomass [10]: 147.50 dt/ha | Efficacy Peronospora manshurica [11]: 3.32 scale 0-10 | Efficacy Colletotrichum spp. [12]: 1.76 scale 0-10 | Bulk density [13]: 0.627 kg/L | Yield [13]: 38.26 dt/ha | Biomass [13]: 156.7 dt/ha | The Thousand Grain Weight (TGW) [13]: 204.0 g | % mycelium growth relative to the control ([14]; V8 medium): 40% | mycelium growth ([14]; V8 medium, control 8.6 cm): 3.4 cm | EFFICACY W (Abbot) ([14]; control W=0, no growth W=100): 60 | % mycelium growth relative to the control ([15]; V8 medium): 100% | mycelium growth ([15]; V8 medium, control 8.6 cm): 8.6 cm | EFFICACY W (Abbot) ([15]; control W=0, no growth W=100): 0 | % mycelium growth relative to the control ([16]; V8 medium): 0% | mycelium growth ([16]; V8 medium, control 1.9 cm): 0 cm | EFFICACY W (Abbot) ([16]; control W=0, no growth W=100): 100 | % mycelium growth relative to the control ([17]; V8 medium): 30% | mycelium growth ([17]; V8 medium, control 5.4 cm): 1.6 cm | EFFICACY W (Abbot) ([17]; control W=0, no growth W=100): 70 | % mycelium growth relative to the control ([18]; V8 medium): 100% | mycelium growth ([18]; V8 medium, control 8.6 cm): 8.6 cm | EFFICACY W (Abbot) ([18]; control W=0, no growth W=100): 0 | % mycelium growth relative to the control ([19]; V8 medium): 77% | mycelium growth ([19]; V8 medium, control 8.6 cm): 6.6 cm | EFFICACY W (Abbot) ([19]; control W=0, no growth W=100): 23 | % mycelium growth relative to the control ([20]; V8 medium): 33% | mycelium growth ([20]; V8 medium, control 5.4 cm): 1.8 cm | EFFICACY W (Abbot) ([20]; control W=0, no growth W=100): 67 | % mycelium growth relative to the control ([21]; V8 medium): 0% | mycelium growth ([21]; V8 medium, control 5.4 cm): 0 cm | EFFICACY W (Abbot) ([21]; control W=0, no growth W=100): 100 | % mycelium growth relative to the control ([22]; V8 medium): 100% | mycelium growth ([22]; V8 medium, control 8.6 cm): 8.6 cm | EFFICACY W (Abbot) ([22]; control W=0, no growth W=100): 0 | % mycelium growth relative to the control ([23]; V8 medium): 56% | mycelium growth ([23]; V8 medium, control 3.9 cm): 2.2 cm | EFFICACY W (Abbot) ([23]; control W=0, no growth W=100): 44

N#Cc1c[nH]cc1-c1cccc2c1OC(F)(F)O2 [Fludioxonil, fludioxonil]
effectiveness in reducing the development of pathogens (in words) [24]: completely inhibited fungal growth

CC1(C)CCC(Cc2ccc(Cl)cc2)C1(O)Cn1cncn1 (centres unmarked) [Metconazole (90)]
Efficacy Sclerotinia sclerotiorum [6]: 4.11 scale 0-10 | Efficacy Phoma lingam [7]: 2.99 scale 0-10 | The Thousand Grain Weight (TGW) [8]: 6.13 g | Bulk density [8]: 0.67 kg/L | Yield [8]: 33.63 dt/ha | Biomass [8]: 152.50 dt/ha | Efficacy Zymoseptoria tritici [9]: 3.11 scale 0-10 | Bulk density [10]: 0.67 kg/L | The Thousand Grain Weight (TGW) [10]: 46.20 g | Yield [10]: 78.95 dt/ha | Biomass [10]: 172.50 dt/ha | Efficacy Peronospora manshurica [11]: 3.13 scale 0-10 | Efficacy Colletotrichum spp. [12]: 2.31 scale 0-10 | Bulk density [13]: 0.724 kg/L | Yield [13]: 32.86 dt/ha | Biomass [13]: 146.7 dt/ha | The Thousand Grain Weight (TGW) [13]: 207.0 g

OC(c1ccc(F)cc1)(c1cncnc1)c1ccccc1Cl (centres unmarked) [Nuarimol]
plant emergence [25]: increased emergence | control of common root rot / disease ratings [26]: statistically significant in disease reduction | grain yield [27]: did not increase grain yield

CCCN(CCOc1c(Cl)cc(Cl)cc1Cl)C(=O)n1ccnc1 [Prochloraz (450)]
Efficacy % [5]: 0.00% | Erwinia sp. bacterial growth [5]: 3.5 mm | Efficacy Sclerotinia sclerotiorum [6]: 4.17 scale 0-10 | Efficacy Phoma lingam [7]: 3.11 scale 0-10 | The Thousand Grain Weight (TGW) [8]: 5.72 g | Bulk density [8]: 0.68 kg/L | Yield [8]: 30.06 dt/ha | Biomass [8]: 125.00 dt/ha | Efficacy Zymoseptoria tritici [9]: 3.37 scale 0-10 | Bulk density [10]: 0.65 kg/L | The Thousand Grain Weight (TGW) [10]: 46.90 g | Yield [10]: 71.51 dt/ha | Biomass [10]: 157.50 dt/ha | Efficacy Peronospora manshurica [11]: 3.37 scale 0-10 | Efficacy Colletotrichum spp. [12]: 2.79 scale 0-10 | Bulk density [13]: 0.743 kg/L | Yield [13]: 41.37 dt/ha | Biomass [13]: 176.7 dt/ha | The Thousand Grain Weight (TGW) [13]: 211.5 g

C=CCOC(Cn1ccnc1)c1ccc(Cl)cc1Cl (centres unmarked) [imazalil]
plant emergence [25]: increased emergence

O=C(O)CN(CCN(CC(=O)O)CC(=O)O)CC(=O)O.[Zn+2] [zinc chelated by EDTA, zinc chelated by EDTA (ethylenediamine tetraacetic acid)]
biomass increase (shoots and roots) [28]: neutral to positive influence | germination percentage [28]: neutral to positive influence
